Assay results published in patent publication US8318757B2, “Substituted isoxazoline compound and pest control agent” (Nissan Chemical Industries, Ltd., priority 2007, dated 2012).
Where two headings read alike, the source gives them in different places.

Key:
Assay type in all cases: in vivo
[1] = test system: Spodoptera exigua; assay: Mortality Test for Spodoptera exigua; conditions: 144 h
Procedure: (§1) A 10% emulsifiable concentrate of the compound of the present invention (depending on the type of the compound, a 10% wettable powder was subjected to the test) was diluted with water containing a spreader to prepare a drug solution in a concentration of 100 ppm. In this drug solution, a leaf of cabbage was immersed for about 10 seconds and was air-dried and then put into a petri dish. In the petri dish, five 2 instar larvae of Spodoptera exigua per petri dish were released and the petri dish was capped and stored in a thermostatic room of 25° C. The number of killed larvae after 6 days was measured and the mortality was calculated from the same calculation formula as that in Test Example 1. Here, the test was carried out on the duplicate samples.

[2] = test system: Plutella xylostella; assay: whole plant or invertebrate; conditions: 144 h
Procedure: as §1, with “10” for “100”, “Plutella xylostella” for “Spodoptera exigua”, “following” for “same”, “formula: Mortality (%)=(number of killed insect/number of released insect)×100.” for “formula as that in Test Example 1.”

[3] = test system: Spodoptera litura; assay: whole plant or invertebrate; conditions: 144 h
Procedure: as §1, with “10” for “100”, “litura” for “exigua”

[4] = test system: Aculops pelekassi; assay: whole plant or invertebrate; conditions: 144 h
Procedure: (§2) In a styrol cup having an inner diameter of 7 cm, a wet filtration paper was laid and on the paper, a leaf of mandarin orange cut out so as to have the same diameter as the inner diameter of the cup was laid, followed by inoculating ten larvae of Aculops pelekassi per leaf with the leaf. A 10% emulsifiable concentrate of the compound of the present invention (depending on the type of the compound, a 10% wettable powder was subjected to the test) was diluted with water containing a spreader to prepare a drug solution in a concentration of 100 ppm. The drug solution was sprayed using a rotary spray tower in an amount of 2.5 mL per styrol cup, and the cup was capped and stored in a thermostatic room of 25° C. The number of killed larvae after 6 days was measured and the mortality was calculated from the same calculation formula as that in Test Example 1. Here, the test was carried out on the duplicate samples.

[5] = test system: Nilaparvata lugens; assay: whole plant or invertebrate; conditions: 144 h
Procedure: (§3) A 10% emulsifiable concentrate of the compound of the present invention (depending on the type of the compound, a 10% wettable powder was subjected to the test) was diluted with water containing a spreader to prepare a drug solution in a concentration of 500 ppm. In this drug solution, a leaf sheath of rice was immersed for about 10 seconds and was air-dried and then put into a test tube. In the test tube, five 2 instar larvae of Nilaparvata lugens per test tube were released and the test tube was capped with a sponge and stored in a thermostatic room of 25° C. The number of killed larvae after 6 days was measured and the mortality was calculated from the same calculation formula as that in Test Example 1. Here, the test was carried out on the duplicate samples.

[6] = test system: Myzus persicae; assay: whole plant or invertebrate; conditions: 144 h
Procedure: In a glass petri dish having an inner diameter of 3 cm, a wet absorbent cotton was laid and on the cotton, a leaf of cabbage cut out so as to have the same diameter as the inner diameter of the petri dish was laid, followed by releasing four apterous imagines of Myzus persicae on the leaf. After one day, a 10% emulsifiable concentrate of the compound of the present invention (depending on the type of the compound, a 10% wettable powder was subjected to the test) was diluted with water containing a spreader to prepare a drug solution in a concentration of 500 ppm. The drug solution was sprayed using a rotary spray tower (2.5 mg/cm^2), and the petri dish was capped and stored in a thermostatic room of 25° C. The number of killed imagines after 6 days was measured and the mortality was calculated from the same calculation formula as that in Test Example 1. Here, the test was carried out on the duplicate samples.

[7] = test system: Homona magnanima; assay: Mortality Test for Homona magnanima; conditions: in Brassica oleracea, 144 h
Procedure: as §1, with “Homona magnanima” for “Spodoptera exigua”

[8] = test system: Liriomyza trifolii; assay: whole plant or invertebrate; conditions: 144 h
Procedure: as §3, with “leaf” for “leaf sheath”, “kidney bean which was cut out to a diameter of 7 cm, on which Liriomyza trifolii laid eggs (10 eggs/leaf)” for “rice”, “laid on” for “put into”, “wet filtration paper laid in a styrol cup having an inner diameter” for “test tube. In the test tube, five 2 instar larvae”, “7 cm. The styrol cup” for “Nilaparvata lugens per test tube were released and the test tube”, “capped” for “capped with a sponge”

[9] = test system: Bemisia argentifolii; assay: whole plant or invertebrate; conditions: 144 h
Procedure: In a styrol cup having an inner diameter of 7 cm, a wet filtration paper was laid and on the paper, a cut-out leaf of tomato on which Bemisia argentifolii laid eggs (10 eggs/leaf) was laid. A 10% emulsifiable concentrate of the compound of the present invention (depending on the type of the compound, a 10% wettable powder was subjected to the test) was diluted with water containing a spreader to prepare a drug solution in a concentration of 500 ppm. The drug solution was sprayed using a rotary spray tower in an amount of 2.5 mL per styrol cup, and the cup was capped and stored in a thermostatic room of 25° C. The number of killed larvae after 6 days was measured and the mortality was calculated from the same calculation formula as that in Test Example 1. Here, the test was carried out on the duplicate samples.

[10] = test system: Frankliniella occidentalis; assay: whole plant or invertebrate; conditions: in Phaseolus vulgaris, 48 h
Procedure: as §2, with “kidney bean” for “mandarin orange”, “ten 1 instar” for “ten”, “Frankliniella occidentalis” for “Aculops pelekassi”, “500” for “100”, “2” for “6”

[11] = test system: Tetranychus urticae; assay: whole plant or invertebrate; conditions: in Phaseolus vulgaris, 144 h
Procedure: as §2, with “kidney bean” for “mandarin orange”, “Tetranychus urticae” for “Aculops pelekassi”, “500” for “100”

[12] = drug solution 100 ppm (mark *), cabbage leaf immersed, 2 instar larvae, after 6 days, read-out: mortality

CS(CC(=O)NCc1ccc(C2=NOC(c3cc(Cl)c(Cl)c(C(F)(F)F)c3)(C(F)(F)F)C2)cc1Br)=NC(=O)C(F)(F)F (centres unmarked) [1-102, N-[2-bromo-4-[5-[3,4-dichloro-5-(trifluoromethyl)phenyl]-5-trifluoromethyl-4,5-dihydroisoxazole-3-yl]phenyl]methyl-2-[N-(trifluoroacetyl)methylsulfinimidoyl]acetamide]
≥ 80%: mortality at 100 ppm ([1]; in Brassica oleracea) | mortality at 10 ppm ([2]; in Brassica oleracea) | mortality at 10 ppm ([3]; in Brassica oleracea) | mortality at 100 ppm [4]

CS(=O)(=O)CC(=O)NCc1ccc(C2=NOC(c3cc(Br)cc(C(F)(F)F)c3)(C(F)(F)F)C2)cc1Cl (centres unmarked) [1-113, N-[4-[5-[3-bromo-5-(trifluoromethyl)phenyl]-5-trifluoromethyl-4,5-dihydroisoxazole-3-yl]-2-chlorophenyl]methyl-2-(methylsulfonyl)acetamide]
≥ 80%: mortality at 100 ppm ([1]; drug solution 100 ppm, cabbage leaf immersed, 2 instar larvae, after 6 days, read-out: mortality) | mortality at 100 ppm [2, 12] | mortality at 500 ppm ([5]; drug solution 500 ppm, rice leaf sheath immersed, 2 instar larvae, after 6 days, read-out: mortality) | mortality at 500 ppm ([6]; drug solution 500 ppm sprayed, cabbage leaf, apterous imagines, after 6 days, read-out: mortality) | mortality at 100 ppm [3, 12] | mortality at 100 ppm [7] | mortality at 500 ppm ([8]; drug solution 500 ppm, kidney bean leaf with eggs immersed, after 6 days, read-out: mortality) | mortality at 500 ppm ([9]; drug solution 500 ppm sprayed, tomato leaf with eggs, after 6 days, read-out: mortality) | mortality at 100 ppm ([4]; drug solution 100 ppm sprayed, mandarin orange leaf, larvae, after 6 days, read-out: mortality)

CCSCC(=O)N(C)Cc1ccc(C2=NOC(c3cc(Cl)c(Cl)c(Cl)c3)(C(F)(F)F)C2)cc1Cl (centres unmarked) [2-002, N-[2-chloro-4-[5-(3,4,5-trichlorophenyl)-5-trifluoromethyl-4,5-dihydroisoxazole-3-yl]phenyl]methyl-2-ethylthio-N-methylacetamide]
≥ 80%: mortality at 500 ppm [10] | mortality at 500 ppm ([5]; in Oryza sativa) | mortality at 500 ppm ([6]; in Brassica oleracea) | mortality at 500 ppm [11] | mortality at 100 ppm [7] | mortality at 500 ppm ([9]; in Solanum lycopersicum)

CCS(=O)(=O)CC(=O)N(C)Cc1ccc(C2=NOC(c3cc(Cl)c(Cl)c(Cl)c3)(C(F)(F)F)C2)cc1Cl (centres unmarked) [2-005, N-[2-chloro-4-[5-(3,4,5-trichlorophenyl)-5-trifluoromethyl-4,5-dihydroisoxazole-3-yl]phenyl]methyl-2-ethylsulfonyl-N-methylacetamide]
≥ 80%: mortality at 500 ppm [10] | mortality at 500 ppm ([5]; in Oryza sativa) | mortality at 500 ppm ([6]; in Brassica oleracea) | mortality at 500 ppm [11] | mortality at 100 ppm [7] | mortality at 500 ppm ([8]; in Phaseolus vulgaris) | mortality at 500 ppm ([9]; in Solanum lycopersicum)
